Tested on: G3BP1 NFT2
Assay type: binding, human
Settings: library DMS-BM; bait G3BP1 NFT2; prey CAPRIN1; AQMQGPYNFIQDSM(averaged): mean of the two overlapping peptides over the shared positions

| Substance | DMS position-specific score (PSSM value) per amino-acid substitution, averaged |
| --- | --- |
| AQMQGPYNFIQDSM(averaged) N8P (AQMQGPYPFIQDSM) | 0.002565 |
| AQMQGPYNFIQDSM(averaged) N8Q (AQMQGPYQFIQDSM) | 0.04567 |
| AQMQGPYNFIQDSM(averaged) N8R (AQMQGPYRFIQDSM) | 0.00733 |
| AQMQGPYNFIQDSM(averaged) N8S (AQMQGPYSFIQDSM) | 0.04423 |
| AQMQGPYNFIQDSM(averaged) N8T (AQMQGPYTFIQDSM) | 0.1728 |
| AQMQGPYNFIQDSM(averaged) N8V (AQMQGPYVFIQDSM) | 0.1991 |
| AQMQGPYNFIQDSM(averaged) N8W (AQMQGPYWFIQDSM) | 0.1126 |
| AQMQGPYNFIQDSM(averaged) N8Y (AQMQGPYYFIQDSM) | 0.0098 |
| AQMQGPYNFIQDSM(averaged) P6A (AQMQGAYNFIQDSM) | 0.08584 |
| AQMQGPYNFIQDSM(averaged) P6D (AQMQGDYNFIQDSM) | 0.01341 |
| AQMQGPYNFIQDSM(averaged) P6E (AQMQGEYNFIQDSM) | 0.004474 |
| AQMQGPYNFIQDSM(averaged) P6F (AQMQGFYNFIQDSM) | 0.002152 |
| AQMQGPYNFIQDSM(averaged) P6G (AQMQGGYNFIQDSM) | 0.006371 |
| AQMQGPYNFIQDSM(averaged) P6H (AQMQGHYNFIQDSM) | 0.008056 |
| AQMQGPYNFIQDSM(averaged) P6I (AQMQGIYNFIQDSM) | 0.007006 |
| AQMQGPYNFIQDSM(averaged) P6K (AQMQGKYNFIQDSM) | 0.01016 |
| AQMQGPYNFIQDSM(averaged) P6L (AQMQGLYNFIQDSM) | 0.02822 |
| AQMQGPYNFIQDSM(averaged) P6M (AQMQGMYNFIQDSM) | 0.05352 |
| AQMQGPYNFIQDSM(averaged) P6N (AQMQGNYNFIQDSM) | 0.03046 |
| AQMQGPYNFIQDSM(averaged) P6P | 0.3942 |
| AQMQGPYNFIQDSM(averaged) P6Q (AQMQGQYNFIQDSM) | 0.00431 |
| AQMQGPYNFIQDSM(averaged) P6R (AQMQGRYNFIQDSM) | 0.01834 |
| AQMQGPYNFIQDSM(averaged) P6S (AQMQGSYNFIQDSM) | 0.00881 |
| AQMQGPYNFIQDSM(averaged) P6T (AQMQGTYNFIQDSM) | 0.1796 |
| AQMQGPYNFIQDSM(averaged) P6V (AQMQGVYNFIQDSM) | 0.006564 |
| AQMQGPYNFIQDSM(averaged) P6W (AQMQGWYNFIQDSM) | 0.02305 |
| AQMQGPYNFIQDSM(averaged) P6Y (AQMQGYYNFIQDSM) | 0.1155 |

| Substance | DMS position-specific score (PSSM value) per amino-acid substitution, averaged |
| --- | --- |
| AQMQGPYNFIQDSM(averaged) Q2A (AAMQGPYNFIQDSM) | 0.04422 |
| AQMQGPYNFIQDSM(averaged) Q2D (ADMQGPYNFIQDSM) | 0.02749 |
| AQMQGPYNFIQDSM(averaged) Q2E (AEMQGPYNFIQDSM) | 0.09844 |
| AQMQGPYNFIQDSM(averaged) Q2F (AFMQGPYNFIQDSM) | 0.3525 |
| AQMQGPYNFIQDSM(averaged) Q2G (AGMQGPYNFIQDSM) | 0.001251 |
| AQMQGPYNFIQDSM(averaged) Q2H (AHMQGPYNFIQDSM) | 0.02779 |
| AQMQGPYNFIQDSM(averaged) Q2I (AIMQGPYNFIQDSM) | 0.05266 |
| AQMQGPYNFIQDSM(averaged) Q2K (AKMQGPYNFIQDSM) | 0.006084 |
| AQMQGPYNFIQDSM(averaged) Q2L (ALMQGPYNFIQDSM) | 0.006039 |
| AQMQGPYNFIQDSM(averaged) Q2M (AMMQGPYNFIQDSM) | 0.123 |
| AQMQGPYNFIQDSM(averaged) Q2N (ANMQGPYNFIQDSM) | 0.006268 |
| AQMQGPYNFIQDSM(averaged) Q2P (APMQGPYNFIQDSM) | 0.007875 |
| AQMQGPYNFIQDSM(averaged) Q2Q | 0.0522 |
| AQMQGPYNFIQDSM(averaged) Q2R (ARMQGPYNFIQDSM) | 0.001052 |
| AQMQGPYNFIQDSM(averaged) Q2S (ASMQGPYNFIQDSM) | 0.004198 |
| AQMQGPYNFIQDSM(averaged) Q2T (ATMQGPYNFIQDSM) | 0.03322 |
| AQMQGPYNFIQDSM(averaged) Q2V (AVMQGPYNFIQDSM) | 0.04598 |
| AQMQGPYNFIQDSM(averaged) Q2W (AWMQGPYNFIQDSM) | 0.05769 |
| AQMQGPYNFIQDSM(averaged) Q2Y (AYMQGPYNFIQDSM) | 0.05198 |
| AQMQGPYNFIQDSM(averaged) Q4A (AQMAGPYNFIQDSM) | 0.0506 |
| AQMQGPYNFIQDSM(averaged) Q4D (AQMDGPYNFIQDSM) | 0.3261 |
| AQMQGPYNFIQDSM(averaged) Q4E (AQMEGPYNFIQDSM) | 0.0003947 |
| AQMQGPYNFIQDSM(averaged) Q4F (AQMFGPYNFIQDSM) | 0.01567 |
| AQMQGPYNFIQDSM(averaged) Q4G (AQMGGPYNFIQDSM) | 0.08843 |
| AQMQGPYNFIQDSM(averaged) Q4H (AQMHGPYNFIQDSM) | 0.0707 |
| AQMQGPYNFIQDSM(averaged) Q4I (AQMIGPYNFIQDSM) | 0.04808 |
| AQMQGPYNFIQDSM(averaged) Q4K (AQMKGPYNFIQDSM) | 4.484e-5 |

| Substance | DMS position-specific score (PSSM value) per amino-acid substitution, averaged |
| --- | --- |
| AQMQGPYNFIQDSM(averaged) Q4L (AQMLGPYNFIQDSM) | 0.003961 |
| AQMQGPYNFIQDSM(averaged) Q4M (AQMMGPYNFIQDSM) | 0.02121 |
| AQMQGPYNFIQDSM(averaged) Q4N (AQMNGPYNFIQDSM) | 0.005313 |
| AQMQGPYNFIQDSM(averaged) Q4P (AQMPGPYNFIQDSM) | 0.003604 |
| AQMQGPYNFIQDSM(averaged) Q4Q | 0.2404 |
| AQMQGPYNFIQDSM(averaged) Q4R (AQMRGPYNFIQDSM) | 0.00079 |
| AQMQGPYNFIQDSM(averaged) Q4S (AQMSGPYNFIQDSM) | 0.003246 |
| AQMQGPYNFIQDSM(averaged) Q4T (AQMTGPYNFIQDSM) | 0.0001371 |
| AQMQGPYNFIQDSM(averaged) Q4V (AQMVGPYNFIQDSM) | 0.1002 |
| AQMQGPYNFIQDSM(averaged) Q4W (AQMWGPYNFIQDSM) | 0.01813 |
| AQMQGPYNFIQDSM(averaged) Q4Y (AQMYGPYNFIQDSM) | 0.002959 |
| AQMQGPYNFIQDSM(averaged) Q11A (AQMQGPYNFIADSM) | 0.001301 |
| AQMQGPYNFIQDSM(averaged) Q11D (AQMQGPYNFIDDSM) | 0 |
| AQMQGPYNFIQDSM(averaged) Q11E (AQMQGPYNFIEDSM) | 0 |
| AQMQGPYNFIQDSM(averaged) Q11F (AQMQGPYNFIFDSM) | 0.006502 |
| AQMQGPYNFIQDSM(averaged) Q11G (AQMQGPYNFIGDSM) | 0.1489 |
| AQMQGPYNFIQDSM(averaged) Q11H (AQMQGPYNFIHDSM) | 0.008689 |
| AQMQGPYNFIQDSM(averaged) Q11I (AQMQGPYNFIIDSM) | 0 |
| AQMQGPYNFIQDSM(averaged) Q11K (AQMQGPYNFIKDSM) | 0.0002863 |
| AQMQGPYNFIQDSM(averaged) Q11L (AQMQGPYNFILDSM) | 0.00722 |
| AQMQGPYNFIQDSM(averaged) Q11M (AQMQGPYNFIMDSM) | 0.0771 |
| AQMQGPYNFIQDSM(averaged) Q11N (AQMQGPYNFINDSM) | 0.05691 |
| AQMQGPYNFIQDSM(averaged) Q11P (AQMQGPYNFIPDSM) | 0 |
| AQMQGPYNFIQDSM(averaged) Q11Q | 0.3738 |
| AQMQGPYNFIQDSM(averaged) Q11R (AQMQGPYNFIRDSM) | 0.004534 |
| AQMQGPYNFIQDSM(averaged) Q11S (AQMQGPYNFISDSM) | 0.05986 |
